Values quoted from earlier work in patent publication US20140148379A1, “Control of Unwanted Bacteria in Fermentation Systems with Bacteriocin” (priority 2012, published 2014).

System: Staphylococcus aureus
Conditions: nisin combined with the endolysin produced by Staphylococcal phage; contaminated milk

Substance: nisin
- effect of combination: strong synergistic effect
